{"source": "patent US20140045689A1", "about": "“3,4-disubstituted pyrrole 2,5-diones and their use as fungicides” (priority 2011, published 2014)", "key": {"[1]": {"system": "Pyrenophora teres", "test": "Activity against net blotch Pyrenophora teres in the microtiter test", "assay_type": "cell-based", "settings": "relative growth vs active substance-free control (=100%), absorption 405 nm, day 7 after inoculation"}, "[2]": {"system": "Phakopsora pachyrhizi", "test": "Protective control of soy bean rust on soy beans caused by Phakopsora pachyrhizi (greenhouse)", "assay_type": "in vivo", "settings": "% diseased leaf area, soy bean seedlings sprayed 1 day before inoculation, untreated control 90", "experimental": "(§1) The active substances were formulated separately or together as a stock solution comprising 25 mg of active substance which was made up to 10 ml using a mixture of acetone and/or dimethyl sulfoxide (DMSO) and the emulsifier Wettol EM 31 (wetting agent having emulsifying and dispersing action based on ethoxylated alkylphenols) in a volume ratio of solvent/emulsifier of 99 to 1. This solution was then made up to 100 ml using water. This stock solution was diluted with the solvent/emulsifier/water mixture described to the active substance concentration given below.\nLeaves of pot-grown soy bean seedlings were sprayed to run-off with an aqueous suspension, containing the concentration of active ingredient or their mixture as described below. The plants were allowed to air-dry. The trial plants were cultivated for 1 day in a greenhouse chamber at 23-27° C. and a relative humidity between 60 and 80%. Then the plants were inoculated with spores of Phakopsora pachyrhizi. To ensure the success the artificial inoculation, the plants were transferred to a humid chamber with a relative humidity of about 95% and 20 to 24° C. for 24 h. The trial plants were cultivated for fourteen days in a greenhouse chamber at 23-27° C. and a relative humidity between 60 and 80%. The extent of fungal attack on the leaves was visually assessed as % diseased leaf area."}, "[3]": {"system": "Septoria tritici", "test": "Preventative control of leaf blotch on wheat caused by Septoria tritici (Septtr P1, greenhouse)", "assay_type": "in vivo", "settings": "% diseased leaf area, wheat seedlings sprayed 1 day before inoculation, untreated control 80", "experimental": "as §1\nLeaves of pot-grown wheat seedling were sprayed to run-off with an aqueous suspension of the active compound or their mixture, prepared as described. The plants were allowed to air-dry. At the following day the plants were inoculated with an aqueous spore suspension of Septoria tritici. Then the trial plants were immediately transferred to a humid chamber at 18-22° C. and a relative humidity close to 100%. After 4 days the plants were transferred to a chamber with 18-22° C. and a relative humidity close to 70%. After 4 weeks the extent of fungal attack on the leaves was visually assessed as % diseased leaf area."}, "[4]": {"system": "Plasmopara viticola", "assay_type": "in vivo", "settings": "% diseased leaf area on lower leaf surface, grape cuttings sprayed 1 day before inoculation, untreated control 100"}, "[5]": {"system": "Pyricularia oryzae", "assay_type": "cell-based", "settings": "relative growth vs active substance-free control (=100%), absorption 405 nm, day 7 after inoculation"}}}
{"smiles": "CN(C)C1=C(C#N)C(=O)N(C)C1=O", "values": [{"measurement": "melting point", "result": 120, "unit": "°C"}]}
{"smiles": "CN1C(=O)C(Oc2ccccc2)=C(Oc2ccccc2)C1=O", "values": [{"measurement": "Growth at 32 ppm (%)", "setting": "[1]", "result": 1, "unit": "%"}]}
{"smiles": "CCN1C(=O)C(Cl)=C(Sc2ccccc2S)C1=O", "values": [{"measurement": "Disease (%) at 1000 pm Phakpa P1", "setting": "[2]", "result": 3, "unit": "%"}]}
{"smiles": "CCN1C(=O)C(Cl)=C(Sc2ccccc2O)C1=O", "values": [{"measurement": "Disease (%) at 1000 pm Septtr P1", "setting": "[3]", "result": 1, "unit": "%"}]}
{"smiles": "COC1=C(OC)C(=O)N(C)C1=O", "values": [{"measurement": "Disease (%) at 1000 pm Plasvi P1", "setting": "[4]", "result": 20, "unit": "%"}]}
{"smiles": "CN1C(=O)C(N)=C(Cl)C1=O", "values": [{"measurement": "Disease (%) at 1000 pm Plasvi P1", "setting": "[4]", "result": 7, "unit": "%"}]}
{"smiles": "CSC1=C(SC)C(=O)N(C)C1=O", "note": "[drawing 56]", "values": [{"measurement": "Growth at 32 ppm (%)", "setting": "[1]", "result": 0, "unit": "%"}]}
{"smiles": "CCN1C(=O)C(Cl)=C(Nc2ccccc2O)C1=O", "note": "[drawing 57]", "values": [{"measurement": "Growth at 32 ppm (%)", "setting": "[1]", "result": 15, "unit": "%"}]}
{"smiles": "CCN1C(=O)C=C(Nc2ccccc2O)C1=O", "note": "[drawing 58]", "values": [{"measurement": "Growth at 32 ppm (%)", "setting": "[1]", "result": 12, "unit": "%"}]}
{"smiles": "CSC1=C(SC)C(=O)N(C)C1=O", "note": "[drawing 59]", "values": [{"measurement": "Growth at 32 ppm (%)", "setting": "[5]", "result": 0, "unit": "%"}]}
{"smiles": "CCN1C(=O)C(Cl)=C(Nc2ccccc2O)C1=O", "note": "[drawing 60]", "values": [{"measurement": "Growth at 32 ppm (%)", "setting": "[5]", "result": 10, "unit": "%"}]}
{"smiles": "CCN1C(=O)C=C(Nc2ccccc2O)C1=O", "note": "[drawing 61]", "values": [{"measurement": "Growth at 32 ppm (%)", "setting": "[5]", "result": 11, "unit": "%"}]}
